This note sets out measurements from US10589001B2, “Pharmaceutical formulation for use in spinal fusion” (Kuros Biosurgery AG, priority 2011, dated 2020).

The subject of the series is Crossbred Suffolk Sheep. The series can be described thus: Sheep transforaminal lumbar interbody fusion model. The class given is in vivo. As for the experimental part:
As in example 1, PTH (i.e. TGplPTH1-34) was tested alone or with granular material. The same materials were used as in example 1, and the preparation of the product followed the same protocol as for example 1, but in this study the concentrations of TGplPTH1-34 ranged from 0.2 mg/mL to 0.7 mg/mL of the fibrin matrix. The treatment was placed only inside the interbody cage. No additional test material was placed around the cage, as in example 1.
A total of 28 Crossbred Suffolk Sheep (Castrated Weathers) with an average weight of 57 kg and age ranging from 3 to 6 years of age were chosen as experimental animals. The animals were divided into 7 groups. One group (the positive control group) was treated with autograft and the remaining groups were treated with a fibrin matrix with or without granular material, containing different concentrations of TGplPTH1-34. Groups were followed for 16 weeks, after which the animals were sacrificed. Animal care and use was conducted in accordance with federal regulations as outlined in the Animal Welfare Act. Surgery, perioperative care, housing, sanitation practices, husbandry, and veterinary care followed the recommendations of the NIH Guide for the Care and Use of Laboratory Animals (HHS, NIH Pub. No. 85-23, 1985). Animal care personnel were qualified, through training and experience, to perform required duties. […]

As for `CC[C@H](C)[C@H](NC(=O)[C@H](CCC(=O)O)NC(=O)[C@H](CO)NC(=O)[C@@H](NC(=O)[C@H](CO)NC(=O)[C@H](CCCNC(=N)N)NC(=O)[C@H](CC(N)=O)NC(=O)[C@H](CCCCN)NC(=O)[C@H](Cc1ccc(O)cc1)NC(=O)[C@H](CC(C)C)NC(=O)[C@@H]1CCCN1C(=O)[C@H](CO)NC(=O)[C@@H](NC(=O)[C@H](CCC(N)=O)NC(=O)[C@H](CCC(=O)O)NC(=O)[C@H](CCC(N)=O)NC(=O)[C@@H](N)CC(N)=O)C(C)C)C(C)C)C(=O)N[C@@H](CCC(N)=O)C(=O)N[C@@H](CC(C)C)C(=O)N[C@@H](CCSC)C(=O)N[C@@H](Cc1c[nH]cn1)C(=O)N[C@@H](CC(N)=O)C(=O)N[C@@H](CC(C)C)C(=O)NCC(=O)N[C@@H](CCCCN)C(=O)N[C@@H](Cc1c[nH]cn1)C(=O)N[C@@H](CC(C)C)C(=O)N[C@@H](CC(N)=O)C(=O)N[C@@H](CO)C(=O)N[C@@H](CCSC)C(=O)N[C@@H](CCC(=O)O)C(=O)N[C@@H](CCCNC(=N)N)C(=O)N[C@H](C(=O)N[C@@H](CCC(=O)O)C(=O)N[C@@H](Cc1c[nH]c2ccccc12)C(=O)N[C@@H](CC(C)C)C(=O)N[C@@H](CCCNC(=N)N)C(=O)N[C@@H](CCCCN)C(=O)N[C@@H](CCCCN)C(=O)N[C@@H](CC(C)C)C(=O)N[C@@H](CCC(N)=O)C(=O)N[C@@H](CC(=O)O)C(=O)N[C@H](C(=O)N[C@@H](Cc1c[nH]cn1)C(=O)N[C@@H](CC(N)=O)C(=O)N[C@@H](Cc1ccccc1)C(=O)O)C(C)C)C(C)C` [TGplPTH1-34], the “toxicity during the treatment period” value (any of the doses (0.2-0.7 mg/mL) or formulations, 16 weeks) is listed as “No toxicity was observed”. Moreover, the histopathologic review entry (in vivo) is given as “no signs of osseous pathology”.
